Data as given in patent publication US12262990B2, “Methods and materials for prolonged sweat stimulation” (priority 2016, dated 2025).

Columns and labels:
[1] = target: acetylcholinesterase (AChE) (Homo sapiens, UniProt P22303); conditions: in words; cited from earlier work
[2] = tested on: Muscarinic receptor; conditions: class symbols, key not given; cited from earlier work
[3] = tested on: skin of Persons A and B; assay: Example 1: sweat rates by visual and gravimetric (filter paper) testing; assay type: in vivo, human; conditions: for Sweat Generation Rate: single dose about 40 mC/cm^2
Method: (§1) Sweat was stimulated on two persons (A and B) using for each person a current of 0.5 mA and a charge of 75 mC applied over a total stimulated area of 1.9 cm^2 for a time of 150 seconds. Thus, the total charge density was 75 mC/1.9 cm^2 or about 40 mC/cm^2, and the estimated dose of carbachol delivered to the skin was 0.142 mg. The charge density and stimulant dose estimates may vary based on other ionic impurities that are also dosed (e.g., sodium dosed could decrease the amount of carbachol dosed). The effect of the dosed ionic impurities can be estimated or quantified in any given case by analytical chemistry techniques. […] The stimulated area was divided among two circular test sites that were approximately 1 inch apart. Skin impedance was measured using a Gamry Potentiostat using 2 kHz and 1 V peak to peak sinewave. The electrical resistance results are plotted in FIGS. 2A-2D and 3A-3D for Persons A and B, respectively (the data has been separated into four charts for each person for the sake of clarity). The baseline plots were measured at a control site (i.e., non-stimulated skin) positioned within 1 inch of the stimulation site.
Sweat rates in nL/min/gland were also quantified using visual testing and gravimetric testing. Results from Person B are shown in FIG. 4 for a skin site of about 1 cm^2 of skin at 25 hours after stimulation. Approximately 130 active glands were counted per cm^2. Filter papers were weighed, placed on stimulated and control sites for 10 minutes under a plastic wrap to prevent evaporation, and immediately weighed again, and then sweat generation rates were calculated. […] The data for the stimulated sites 1 and 2 (paper measurements taken from each of the two stimulation areas) is shown in Table 2.

[4] = tested on: Nicotinic receptor; conditions: class symbols, key not given; cited from earlier work
[5] = tested on: skin of 8 subjects; assay: Example 2: iontophoretic sweat stimulation on 8 subjects, gravimetric sweat rate; assay type: in vivo, human
Excerpt: On 8 subjects, sweat was stimulated utilizing carbachol four times as detailed in Table 4 and one additional time utilizing pilocarpine. The stimulated area was divided among two circular test sites with areas of 0.88 cm^2 that were approximately 1 inch apart, which provides a total stimulation area of 1.76 cm^2. The carbachol doses in Table 4 are shown as percentages of the applied charge density compared to the charge density of pilocarpine applied by the commercial Wescor Nanoduct product, which is a charge density of 42 mC/cm^2. The pilocarpine was dosed over 150 seconds using a current of 0.28 mA/cm^2 and a charge density of 42 mC/cm^2, which delivered approximately 90.65 μg/cm^2.
Sweat rate was determined by a gravimetric test. Filter papers were weighed, placed on stimulated and control sites for 10 minutes under a specially designed acrylic holder that prevented any wicking of sweat from neighboring areas and prevented evaporation. The papers were immediately weighed again, and then sweat generation rates were calculated. The results from the gravimetric testing are plotted in FIGS. 4-6. Additionally, three subjects received three consecutive doses of 12.5% carbachol once the sweat rate had fallen below 1 nL/min/gland. The results from the repeated stimulation testing of subjects 1-3 are plotted in FIGS. 7A-7C, respectively.

[6] = tested on: skin of Persons A and B; assay: Example 1: iontophoretic sweat stimulation on two persons, followed by skin impedance; assay type: in vivo, human; conditions: for duration of sweat stimulation from a single dose: about 40 mC/cm^2, estimated 0.142 mg, skin impedance
Method: as §1

[7] = tested on: skin; conditions: cited from earlier work

Chain of acetylcholinesterase (AChE) (P22303 32-614, species assumed): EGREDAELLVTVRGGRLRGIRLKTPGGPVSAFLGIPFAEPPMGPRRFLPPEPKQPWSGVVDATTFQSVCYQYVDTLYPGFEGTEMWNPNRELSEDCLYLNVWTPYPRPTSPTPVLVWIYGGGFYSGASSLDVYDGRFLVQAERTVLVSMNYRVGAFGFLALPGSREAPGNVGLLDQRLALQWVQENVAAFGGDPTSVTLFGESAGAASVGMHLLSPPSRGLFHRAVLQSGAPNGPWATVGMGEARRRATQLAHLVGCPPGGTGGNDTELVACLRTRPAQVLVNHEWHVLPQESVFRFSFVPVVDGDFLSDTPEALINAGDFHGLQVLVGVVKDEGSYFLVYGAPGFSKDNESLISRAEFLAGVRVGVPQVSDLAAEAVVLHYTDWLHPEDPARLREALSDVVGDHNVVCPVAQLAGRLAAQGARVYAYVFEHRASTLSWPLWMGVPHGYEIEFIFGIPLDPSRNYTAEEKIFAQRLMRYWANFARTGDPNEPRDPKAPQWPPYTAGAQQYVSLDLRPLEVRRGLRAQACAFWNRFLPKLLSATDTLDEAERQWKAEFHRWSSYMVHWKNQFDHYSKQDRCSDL

Compound: CC(=O)OCC[N+](C)(C)C [Acetylcholine]
- metabolism by acetylcholinesterase (AChE) [1]: rapidly metabolized

Compound: C[N+](C)(C)CCOC(N)=O [Carbachol]
- Receptor Activity Muscarinic [2]: strong
- sweat rate ([3]; 40 mC/cm^2 charge density, for 24 hours): greater than 1 nL/min/gland
- active glands counted ([3]; Person B, skin site of about 1 cm^2, 25 hours after stimulation): Approximately 130 per cm^2
- Sweat Generation Rate ([3]; Subject A, Site 1, 4 hours after stimulation): 6.4 nl/min/gland
- Sweat Generation Rate ([3]; Subject A, Site 1, 23 hours after stimulation): 3.3 nl/min/gland
- Sweat Generation Rate ([3]; Subject A, Site 2, 4 hours after stimulation): 4.6 nl/min/gland
- Sweat Generation Rate ([3]; Subject A, Site 2, 23 hours after stimulation): 3.1 nl/min/gland
- Sweat Generation Rate ([3]; Subject B, Site 1, 5 hours after stimulation): 8.3 nl/min/gland
- Sweat Generation Rate ([3]; Subject B, Site 1, 23 hours after stimulation): 0.3 nl/min/gland
- Sweat Generation Rate ([3]; Subject B, Site 2, 5 hours after stimulation): 9.4 nl/min/gland
- Sweat Generation Rate ([3]; Subject B, Site 2, 23 hours after stimulation): 2.7 nl/min/gland
- stimulated sweat amount ([3]; charge density of less than 40 mC/cm^2): greater than 1,400 nL/gland/dose
- average sweat rates observed ([3]; for 24 hours, half the dose): greater than 2 nL/min/gland
- Receptor Activity Nicotinic [4]: strong
- duration of stimulated sweating response of greater than 0.1 nL/min/gland ([5]; 5 out of 8 subjects, single 12.5% dose (5.25 mC/cm^2)): greater than 8 hours
- sustained sweating following a single iontophoretic dose, compared with pilocarpine ([5]; 8 subjects, in words): much longer than commonly observed for pilocarpine
- duration of sweating responses ([5]; four of the 8 subjects): greater than 24 hours
- duration of sweating at greater than 1 nL/min/gland ([5]; half of the subjects, single 100% dose (42 mC/cm^2)): greater than 24 hours
- duration of sweating at greater than 1 nL/min/gland ([5]; subjects e, g, h, 100% dosage (42 mC/cm^2)): greater than 7 hours
- duration of sweating responses ([5]; three of the 8 subjects): greater than 48 hours
- duration of sweat stimulation from a single dose ([6]; Person A): at least 31 hours
- duration of sweat stimulation from a single dose ([6]; both Persons A and B): at least 24 hours
- duration of sweat generation ([6]; lower charge densities than about 40 mC/cm^2): 24 h
- metabolism by acetylcholinesterase (AChE) [1]: metabolized much more slowly

Compound: CC(=O)OC(C)C[N+](C)(C)C (stereo not shown) [Methacholine]
- metabolism by acetylcholinesterase (AChE) [1]: metabolized much more slowly

Compound: CC[C@@H]1C(=O)OC[C@@H]1Cc1cncn1C [Pilocarpine]
- average sweat rate ([7]; charge density of 40 mC/cm^2, for 90 minutes): 1-4 nL/min/gland
- duration of sweat response ([7]; charge density of 40 mC/cm^2, on average): 90 min
